This is an account of results in a melting point compilation (Tetko et al.; mined from patent text by program, amines drawn as free bases though some values may be those of a salt).

Structures are written as SMILES.

One may read the melting point as the temperature of the solid-liquid transition. `O=C(O)c1cc2c(F)c(F)c(F)c(F)c2s1` yielded a melting point of 200 °C. The figure for `CNC(=O)c1cc(C#N)cc(C)c1N` is 202 to 203 °C. The figure for `CCCc1c(OCCCCCC(=O)c2cc(OC)c(OC)cc2F)ccc(C(=O)O)c1O` is 146 to 147 °C; for `CCOC(=O)c1nn(-c2ccc(CP(=O)(OCC)OCC)cc2)nc1C` it is 60 to 62 °C. `CS(=O)(=O)c1ccc(C2=C(c3ccccc3)C(=O)C2)cc1` came in with a melting point of 139 to 140 °C. Take `O=S1(=O)NCN(CCF)c2cc(F)ccc21`: the melting point was in the range of 107 to 109 °C.

The compound `N=C(N)NC(=O)OCCNC(=O)c1ccc2cc(C(=O)NC(=N)N)ccc2c1` returned a melting point of 205 °C. For `COc1ccc(Nc2nc(Cl)nc(Cl)n2)cc1F`, the melting point is 134 °C. On to `CCCCCCCCCCCCCCCCCCSc1ccc(C)cc1`, for which the melting point was 54 to 55 °C. The compound `O=c1[nH]c2c3ccccc3ccc2n(C2CCCCC2)c1=O` showed a melting point of 288 °C. The compound `COc1ccc(S(=O)(=O)N(CC(N)=O)c2cc(Cl)c(Cl)cc2Cc2ccccc2Cl)cc1OC` gave a melting point of 163 °C. Compound `O=C(Nc1ccc2cc(CN3CCCC3)cnc2c1)N1CCC(c2ccc(F)cc2)CC1` returned a melting point of 239 to 241 °C. On to `CCCOc1ccccc1-c1nc2ncncc2c(=O)[nH]1`, for which the melting point was 142 to 143 °C. As to `CNc1ccccc1CS(=O)c1nccn1-c1ccccn1` (stereo not drawn), the melting point lay in the range of 135 to 137 °C. In the case of `CNc1nc(-c2cccc(-c3ccc(S(C)=O)cc3)c2)c2cc(OC)c(OC)cc2n1` (stereo not drawn), the melting point was in the range of 153 to 155 °C. The figure for `Cc1ccc(CN(c2ccccc2CC(=O)O)c2c(Cl)cccc2Cl)cc1` is 154 to 158 °C.

For the compound `CN(C)c1ccc(C(=O)C(F)c2cccc(Cl)c2)cc1` (stereo not drawn), the melting point lay within 90 to 92 °C. For the compound `CCNc1nc(C)c(C(=O)OCC)c(NCCCN(C)C)c1[N+](=O)[O-]`, the melting point is < 20 °C. `O=C(c1ccc2c(c1)OC(c1cccc(Cl)c1)(c1cccc(Cl)c1)O2)N1CCCCC1`: the melting point is 54 °C.

Regarding `O=C(O)c1cccc(NC(=O)C(CSC(=O)c2ccccc2)Cc2ccccc2)c1` (stereo not drawn), the melting point lay within 182 to 184 °C.

`CCOc1cn(C)c2nc3cc(F)c(F)cc3cc2c1=O`: the melting point was > 270 °C. Take `CCCCP(=O)(C(=O)c1c(C)cc(C)cc1C)C(=O)c1c(OC)cccc1OC` (stereo not drawn): the melting point was in the range of 94 to 96 °C.

`NS(=O)(=O)c1cc2cc(C=O)sc2s1` registered a melting point of 188 to 189 °C. The figure for `CCOC(=O)c1nc(SC)[nH]c(=O)c1OCc1ccccc1` is 109 to 110 °C; for `CN1C(=O)C2(COc3cc4c(cc32)OCCO4)c2c(-c3cnn(C)c3)cccc21` (stereo not drawn) it is 220 to 222 °C.

In turn, `O=C1Cc2c(CCO)cccc2N1` registered a melting point of 145 to 147 °C. To `CCCCCCCCC(Sc1ccccn1)C(=O)Nc1cccc2cnccc12` (stereo not drawn) belongs 81 to 83 °C; to `CCn1c(=O)cc(C)c2ccc(OCCCN3CCC(NC(=O)c4ccccc4)CC3)cc21`, 164 to 165 °C. To `Nc1ncc2cc(-c3c(Cl)cccc3Cl)c(=O)n(Cc3c(Cl)cccc3Cl)c2n1` belongs 274 to 276 °C; to `CN1C(=O)C(C(=O)Nc2ccc(OC(F)(F)F)c(Cl)c2)C(=O)N(C)C1=O`, 160 °C; to `FC(F)Sc1ccc(-c2ccccc2)cc1`, 56 to 57 °C. `Cc1ccc(C(=O)O)c(Nc2ccc3[nH]ncc3c2)n1`: the melting point was 252 to 254 °C. In turn, `O=C(NCCO)c1cccc(-c2cccc3nn(Cc4cccc(Cl)c4)cc23)c1` displayed a melting point of 202 to 203 °C. Compound `O=S(=O)(c1ccc2ccc(Br)cc2c1)N(Cc1ccccc1)Cc1ccccc1` yielded a melting point of 127 to 129 °C. `COC(=O)c1[nH]c2c(C)ccc(C)c2c1NC(C)=O` returned a melting point of 221 to 222 °C. As to `O=C(NCc1ccc(Cl)cc1)c1cn(N2CCOCC2)c2ccc(CN3CCOCC3)cc2c1=O`, the melting point was 195 to 196 °C. Turning to `CS(=O)(=O)c1ccc(-c2cnn(-c3ccccc3[N+](=O)[O-])c(=O)c2-c2ccc(F)cc2)cc1`, the melting point lay in the range of 236 to 239 °C. The compound `COc1cc(Nc2nccc(-c3sc(CO)nc3C)n2)ccc1N1CCOCC1` gave a melting point of 180 to 181 °C. `CCCCCCC(c1nccn1C)n1cnc2cc(-c3ccccc3-c3nn[nH]n3)ccc21` (stereo not drawn) displayed a melting point of 88 to 93 °C. `c1ccc2c(-c3nnn[nH]3)cccc2c1` registered a melting point of 205 to 206 °C. In turn, `Cn1cncc1-c1c(C(CC#N)c2ccc(Cl)cc2)ccc2c1c(-c1cccc(Cl)c1)cc(=O)n2C` (stereo not drawn) had a melting point of 151 °C.

For `CCCS(=O)c1ccc(-c2coc3ccc(-c4nnc(C)o4)cc23)cc1` (stereo not drawn), the melting point was 140 to 141 °C. In turn, `CN[C@@H]1Cc2cccc3[nH]c(=S)n(c23)C1` displayed a melting point of 210 to 213 °C. The figure for `NC(=O)CCCOc1cccc(CCNS(=O)(=O)c2ccc(Cl)cc2)c1` is 110 to 112 °C. To `CCCC(C)c1nn(-c2ccc(C(F)(F)F)cn2)cc1C=O` (stereo not drawn) belongs 63 to 64 °C; to `COc1cccc(NC(=O)C(C)(C)C)c1C(C)O` (stereo not drawn), 159 °C. On to `COCCOc1ccc(/C=C/C(=O)NS(=O)(=O)C(F)(F)F)c(Oc2ncc(C(F)(F)F)cc2Cl)c1`, for which the melting point lay within 126 to 128 °C. For the compound `CC(c1ccc(N(C)C)cc1)c1ccc(N(C)C)cc1`, the melting point worked out at 68 °C.

As to `CCOC(=O)C1=C(C)NC(C)=C(C(=O)OCCN2CCN(C(c3ccc(C)cc3)c3ccc(C)cc3)CC2)C1c1cccc(Cl)c1` (stereo not drawn), the melting point lay within 79 to 81 °C. Turning to `Cc1ccc(-c2ccc(C(=O)Nc3ccc4cc(CN5CCCC5)ccc4c3)cn2)cc1`, the melting point was in the range of 260 to 262 °C.

As for `Oc1ccc2ccc(F)c(F)c2c1F`, the melting point worked out at 91 °C. To `CC(=O)Nc1ccccc1CS(=O)c1nccn1-c1ccncc1` (stereo not drawn) belongs 147 to 149 °C.

As for `COc1ccc2c(ccn3c(C)nnc23)c1`, the melting point was 183 to 184 °C.

As to `CC(=O)Nc1cc(Cl)c(C)c(Cl)c1O`, the melting point was 175 to 176 °C. In the case of `O=Cc1cc(Br)c(Cl)cc1[N+](=O)[O-]`, the melting point was in the range of 81 to 82 °C. `CCCCCS(=O)(=O)NC(=O)/C(C)=C/c1ccc(OCCOC)cc1Oc1ncc(Cl)cc1Cl` returned a melting point of 97 to 98 °C. Turning to `CN1Cc2c(C(N)=O)ncn2-c2ccc(Cl)cc2C1=O`, the melting point fell in the range of 275 to 277 °C. For the compound `CCNc1nc(-c2ccccc2)c(-c2ccccc2)nc1Cl`, the melting point lay in the range of 115 to 122 °C.

As to `O=C1OC(=O)c2c1c1c3ccccc3[nH]c1c1c2c2cccnc2n1C1OC(CO)C(O)C(O)C1O` (stereo not drawn), the melting point is > 300 °C. The figure for `O=C(Nc1ccc(Oc2ccccc2)cc1)N1CCN(c2ncnc3ccccc23)CC1` is 74 to 75 °C; for `COc1ccc2cc(-c3ccnc(N(C)C)n3)cc(NC3CCN(c4ncnc5[nH]nc(Br)c45)CC3)c2c1` it is 167 to 172 °C. Compound `CC=NN(C(=O)c1ccc(Cl)cc1)c1ccc2c(c1)OCO2` displayed a melting point of 140 to 142 °C. The compound `COc1c(Cl)ccc(-c2cc(N)c(Cl)c(C(=O)N(C)O)n2)c1F` yielded a melting point of 211 to 214 °C.
